# “Also recorded” adds a separate entry of the source.
# Assays:
# [1] = PK analysis of lartesertib in plasma (non-compartmental); format: in vivo, human
# Protocol: The PK of lartesertib was characterized during dose escalation using an intensive PK sample collection schedule. Blood samples were collected at multiple timepoints during Cycle 1, including on Day 1 (pre-dose at 0 hours and post-dose at 0.5, 1, 2, 3, 4, 6, 8, and 12 hours) and Day 8 (pre-dose at 0 hours and post-dose at 1, 2, 3, 4, 6, 8, and 12 hours). PK parameters were calculated from individual plasma concentration–time data using non-compartmental methods.
# γ-H2AX = assay: PD analysis: γ-H2AX in CD45+ lymphocytes after ex vivo bleomycin stimulation, flow cytometry; parameters: species or system human; settings: 2, 4, 6 hours on Day 1, sustained Day 2 at 2 to 4 hours, all four DLs
# Protocol: The PD analyses in blood were conducted using samples collected during Cycle 1 at the following time points: Day 1, pre-dose, and post-dose at 2, 4, and 6 hours; Day 2 at pre-dose and post-dose at 2 to 4 hours; and Day 22 at pre-dose and post-dose at 2 and 4 hours. These samples were analyzed to assess levels of the PD biomarker, γ-H2AX, a phosphorylated histone variant known to represent an early and sensitive marker of DSB response ([18]). Each sample was stimulated ex vivo with bleomycin, a DNA DSB inducer that activates ATM function, or with phosphate-buffered saline as a negative control. γ-H2AX was subsequently measured in the CD45^+ lymphocyte fraction by flow cytometry.
compound,measurement,setting,value
COc1cc2ncc3c(c2cc1-c1cn(C)nc1C)n(-c1c(F)cncc1OC)c(=O)n3C [lartesertib],Exposure versus dose,[1]; 100-400 mg once daily,increased in a dose-related manner; also recorded: increased in a dose-dependent manner
same,half-life,"[1]; human, plasma, oral, across 100-400 mg once daily, Day 1 and Day 8, read-out: Geometric mean elimination half-life (t1/2)",5 to 7 h
same,Tmax,"[1]; human, plasma, oral, across 100-400 mg once daily, Day 1 and Day 8, read-out: Median time to reach maximum observed plasma concentration (tmax)",1 to 2 h
same,γ-H2AX target inhibition over time,γ-H2AX,trend of increasing lartesertib target inhibition

# Reference: PMC12580772, “A First-in-Human Study of ATM Inhibitor Lartesertib as Monotherapy in Patients with Advanced Solid Tumors” (Clinical Cancer Research, 2025)
